Measurements: publication PMC10525132, “Potent Antioxidant and Anti-Tyrosinase Activity of Butein and Homobutein Probed by Molecular Kinetic and Mechanistic Studies” (Antioxidants, 2023)

What was measured:
[1] = Inhibited autoxidation of methyl linoleate in Triton X-100 micelles (O2 uptake kinetics); conditions: for n (stoichiometric factor of peroxyl radical trapping): MeLin/Triton X-100 micelles
Method: Autoxidation studies were performed as previously described, with slight modifications. In a typical experiment, 2.5 mL of air-saturated buffered (PBS, 50 mM, pH 7.4) aqueous dispersion of MeLin (final concentration 2.74 mM) in Triton™ X-100 (final concentration 16 mM) micelles were prepared by vortex mixing. A fresh stock solution of AAPH was added (final concentration 2.5 mM), immediately followed by addition (5–30 μL) of a stock solution of the antioxidant in acetonitrile (final concentration of 1–20 μM) and by additional vortex mixing (5 s). The mixture was sealed in a 2 mL glass vial provided with a PTFE-coated stirring bar and capped with the O2 sensor. The sample was equilibrated at 37 °C in a thermostatted bath equipped with a sealed magnetic stirrer, and oxygen concentration was monitored with time as previously described. Oxygen consumption in the absence of antioxidants was compared with that recorded in the presence of butein, homobutein, or α-tocopherol (α-TOH) as the reference antioxidant. […]. The stoichiometric factor n was determined from the length of the inhibited period τ by Equation (3). The rate of initiation Ri was determined in preliminary experiments using α-TOH as the inhibitor (n = 2) by Equation (3). (1) −d[O2]/dt=kp[RH]Ri/nkinh[AH]+Ri (2) R0/Rinh−Rinh/R0=nkinh[AH]/2ktRi (3) n=Riτ/[AH]
To study the antioxidant activity of butein and homobutein on quantitative grounds, we performed inhibited autoxidation studies using biomimetic neutral micelles of methyl linoleate (MeLin) in aqueous Triton™ X-100 (with 50 mM PBS, pH 7.4, 37 °C), since it is a well-validated model we and others used in previous studies. The reaction kinetics was followed by monitoring oxygen consumption via miniaturized NIR-fluorescence-quenching O2 probes, according to a previously validated protocol, both in the absence and in the presence of different concentrations of butein or homobutein. The reaction was initiated thermally in the aqueous phase by the controlled decomposition of the azo compound AAPH so as to clearly distinguish the chain-breaking mechanism from other efficacies based on interference with the initiation process (e.g., the Fenton reaction by metal chelation) and α-TOH was used as the reference antioxidant.

[2] = target: T1, mushroom tyrosinase (mTYR) (Agaricus bisporus, UniProt C7FF04); assay: Inhibition of mushroom tyrosinase monophenolase reaction (substrate L-tyrosine, dopachrome at 475 nm); format: biochemical; conditions: for Vmax^app / IC50: 30 °C; for Vmax^app: pH 6.8, L-tyrosine; for IC50: IC50 Monophenolase; for inhibition mode, monophenolase: from M-M and Lineweaver–Burk plots; for KI′ Calc. from Km / KI′ Calc. from Vmax / KI′ Uncompetitive / Ki: monophenolase; for Ki: KI Competitive
T1 construct: purchased Sigma-Aldrich (Milan, Italy)
Method: (§1) Measurements were performed at 30 °C in phosphate buffer (50 mM, pH 6.8) in polystyrene low-volume cuvettes (1.5 mL, l = 1 cm) with a double-beam spectrophotometer. […] The reaction was monitored at 475 nm for up to 60 min, following dopachrome formation. Initial velocity (V = ΔA/Δmin) was converted in μM/min according to Lambert–Beer law using the molar extinction coefficient ε = 3700 M^−1cm^−1 for dopachrome at λmax = 475 nm. Michaelis–Menten parameters (Km e Vmax) were obtained by processing initial velocity vs. substrate concentration data by non-linear fitting to M-M Equation (4), using Sigmaplot 11.0 (Systat Software Inc., San Jose, CA, USA). Linearized Lineweaver–Burk Equation (5) was used to identify the inhibition mode. In both equations, V indicates the measured initial rate of reaction, [S] is the initial substrate concentration, while Vmax and Km are, respectively, the maximum reaction rate (at saturating substrate concentration) and the M-M constant, with the substrate concentration yielding half-maximum rate.
(§2) Determination of M-M inhibition constants KI and KI′, along with assignment of the inhibition mode, is the most reliable method to accurately quantify the potency of enzyme inhibitors, as it is independent of the experimental settings, like substrate and enzyme concentrations.

[3] = target: T1, mushroom tyrosinase (mTYR); assay: Inhibition of mushroom tyrosinase diphenolase reaction (substrate L-dopa, dopachrome at 475 nm); format: biochemical; conditions: for Vmax^app / IC50: 30 °C; for Vmax^app: pH 6.8, L-dopa; for IC50: IC50 Diphenolase; for Ki: KI Competitive; for inhibition mode, diphenolase: from M-M and Lineweaver–Burk plots
Method: as §1
(10) KI=[I]/α−1 and KI′=[I]/α^′−1 where (11) α=(Kmapp × α^′)/Km and α^′=Vmax/Vmaxapp
as §2

mTYR = mTYR (Agaricus bisporus, UniProt C7FF04); assay: Stability toward air and mTYR, decay of concentration by UV-Vis; conditions: air-saturated PBS pH 6.8, 30 °C, 7 U/ml mTYR, 0.05 and 0.1 mM
[4] = AAPH (2.5 mM) initiated autoxidation of MeLin/Triton X-100 micelles, 37 °C, pH 7.4
[5] = MeLin in Triton X-100 micelles, pH 7.4, 37 °C
[6] = average over inhibitor concentrations
[7] = diphenolase, average over inhibitor concentrations
[8] = diphenolase, inhibitor 0.175 µM

T1 sequence (C7FF04 1-392): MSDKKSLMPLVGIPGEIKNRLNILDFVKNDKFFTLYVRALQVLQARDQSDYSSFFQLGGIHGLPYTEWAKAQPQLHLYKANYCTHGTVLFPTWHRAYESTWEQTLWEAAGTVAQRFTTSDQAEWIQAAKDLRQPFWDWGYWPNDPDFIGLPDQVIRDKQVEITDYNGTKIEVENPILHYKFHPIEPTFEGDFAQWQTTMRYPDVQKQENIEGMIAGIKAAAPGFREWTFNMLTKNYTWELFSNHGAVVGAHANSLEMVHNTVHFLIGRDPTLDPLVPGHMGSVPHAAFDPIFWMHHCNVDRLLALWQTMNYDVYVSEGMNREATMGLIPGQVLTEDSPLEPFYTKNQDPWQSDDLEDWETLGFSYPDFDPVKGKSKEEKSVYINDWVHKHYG
mTYR, sequence (C7FF04 1-392): as above

Compound: O=C(/C=C/c1ccc(O)c(O)c1)c1ccc(O)cc1O [Butein, (E)-1-(2,4-dihydroxyphenyl)-3-(3,4-dihydroxyphenyl)prop-2-en-1-one]
- kinh (inhibition rate constant) [1, 4]: 29.8 ± 9.2 10^3 M^−1s^−1
- kinh (inhibition rate constant) [1, 5]: (3.0 ± 0.9) × 10^4 M^−1s^−1
- kinh (inhibition rate constant) ([1]; MeLin in Triton X-100 micelles, pH 7.4, 37 °C, listed as butein): 30000 M⁻¹ s⁻¹
- n (stoichiometric factor of peroxyl radical trapping) ([1]; 37 °C, pH 7.4): 3.7 ± 1.1
- n (stoichiometric factor of peroxyl radical trapping) ([1]; 37 °C, pH 7.4, listed as butein): 3.7
- Vmax^app ([2]; inhibitor 1.4 µM): 3.24 ± 0.07 µM/min
- Vmax^app ([2]; inhibitor 2.8 µM): 3.02 ± 0.05 µM/min
- Vmax^app ([2]; inhibitor 5.6 µM): 2.21 ± 0.04 µM/min
- Vmax^app ([2]; inhibitor 11.2 µM): 1.95 ± 0.07 µM/min
- IC50 ([2]; pH 6.8, L-tyrosine 0.05 mM): 45.1 ± 18.3 µM
- IC50 ([2]; pH 6.8, L-tyrosine 0.125 mM): 35.6 ± 28.4 µM
- IC50 ([2]; pH 6.8, L-tyrosine 0.25 mM): 12.9 ± 3.22 µM
- IC50 ([2]; pH 6.8, L-tyrosine 0.50 mM): 12.3 ± 2.52 µM
- IC50 ([2]; pH 6.8, L-tyrosine 1.00 mM): 10.9 ± 2.19 µM
- inhibition mode, monophenolase [2]: uncompetitive
- inhibition mode, monophenolase ([2]; listed as BU): reversible uncompetitive
- KI′ Calc. from Km [2, 6]: 10.74 ± 3.36 µM
- KI′ Calc. from Vmax [2, 6]: 9.17 ± 2.01 µM
- KI′ Uncompetitive ([2]; averaged over both calculation methods): 9.95 µM
- KI′ Uncompetitive ([2]; averaged over both calculation methods, listed as BU): 9.95 ± 2.69 µM
- KI′ Calc. from Km ([2]; inhibitor 1.4 µM): 7.47 µM
- KI′ Calc. from Vmax ([2]; inhibitor 1.4 µM): 7.44 µM
- KI′ Calc. from Km ([2]; inhibitor 2.8 µM): 10.50 µM
- KI′ Calc. from Vmax ([2]; inhibitor 2.8 µM): 10.19 µM
- KI′ Calc. from Km ([2]; inhibitor 5.6 µM): 9.60 µM
- KI′ Calc. from Vmax ([2]; inhibitor 5.6 µM): 7.55 µM
- KI′ Calc. from Km ([2]; inhibitor 11.2 µM): 15.40 µM
- KI′ Calc. from Vmax ([2]; inhibitor 11.2 µM): 11.49 µM
- Vmax^app ([3]; inhibitor 1.4 µM): 10.93 ± 0.22 µM/min
- Vmax^app ([3]; inhibitor 2.8 µM): 10.60 ± 0.88 µM/min
- Vmax^app ([3]; inhibitor 5.6 µM): 8.17 ± 0.21 µM/min
- Vmax^app ([3]; inhibitor 11.2 µM): 7.42 ± 0.26 µM/min
- IC50 ([3]; pH 6.8, L-dopa 0.05 mM): 3.76 ± 0.96 µM
- IC50 ([3]; pH 6.8, L-dopa 0.125 mM): 4.12 ± 1.39 µM
- IC50 ([3]; pH 6.8, L-dopa 0.25 mM): 5.38 ± 0.9 µM
- IC50 ([3]; pH 6.8, L-dopa 0.50 mM): 9.31 ± 0.85 µM
- IC50 ([3]; pH 6.8, L-dopa 1.00 mM): 15.2 ± 1.25 µM
- Ki [3, 7]: 3.3 ± 0.75 µM
- Ki ([3]; diphenolase, inhibitor 1.4 µM): 3.21 µM
- Ki ([3]; diphenolase, inhibitor 2.8 µM): 2.59 µM
- Ki ([3]; diphenolase, inhibitor 5.6 µM): 3.07 µM
- Ki ([3]; diphenolase, inhibitor 11.2 µM): 4.35 µM
- KI (competitive) lower than KI′ (uncompetitive) ([3]; diphenolase): about 5 fold
- KI′ Uncompetitive [3, 7]: 18.75 ± 5.15 µM
- KI′ Uncompetitive ([3]; diphenolase, inhibitor 1.4 µM): 18.04 µM
- KI′ Uncompetitive ([3]; diphenolase, inhibitor 2.8 µM): 25.24 µM
- KI′ Uncompetitive ([3]; diphenolase, inhibitor 5.6 µM): 12.68 µM
- KI′ Uncompetitive ([3]; diphenolase, inhibitor 11.2 µM): 19.05 µM
- inhibition mode, diphenolase [3]: mixed-type
- behaviour as substrate of mTYR (mTYR): not a significant substrate

Compound: COc1cc(/C=C/C(=O)c2ccc(O)cc2O)ccc1O [Homobutein, (E)-1-(2,4-dihydroxyphenyl)-3-(4-hydroxy-3-methoxyphenyl)prop-2-en-1-one]
- kinh (inhibition rate constant) [1, 4]: 2.8 ± 0.9 10^3 M^−1s^−1
- kinh (inhibition rate constant) [1, 5]: (2.8 ± 0.9) × 10^3 M^−1s^−1
- kinh (inhibition rate constant) ([1]; MeLin in Triton X-100 micelles, pH 7.4, 37 °C, listed as homobutein): 2800 M⁻¹ s⁻¹
- Vmax^app ([2]; inhibitor 1.4 µM): 3.83 ± 0.04 µM/min
- Vmax^app ([2]; inhibitor 2.8 µM): 3.78 ± 0.05 µM/min
- Vmax^app ([2]; inhibitor 5.6 µM): 3.63 ± 0.06 µM/min
- Vmax^app ([2]; inhibitor 11.2 µM): 3.15 ± 0.03 µM/min
- IC50 ([2]; pH 6.8, L-tyrosine 0.05 mM): 4.01 ± 0.66 µM
- IC50 ([2]; pH 6.8, L-tyrosine 0.125 mM): 4.58 ± 0.88 µM
- IC50 ([2]; pH 6.8, L-tyrosine 0.25 mM): 6.06 ± 0.95 µM
- IC50 ([2]; pH 6.8, L-tyrosine 0.50 mM): 8.75 ± 1.18 µM
- IC50 ([2]; pH 6.8, L-tyrosine 1.00 mM): 14.8 ± 1.05 µM
- Ki [2, 6]: 2.76 ± 0.7 µM
- Ki ([2]; inhibitor 1.4 µM): 2.19 µM
- Ki ([2]; inhibitor 2.8 µM): 2.24 µM
- Ki ([2]; inhibitor 5.6 µM): 2.94 µM
- Ki ([2]; inhibitor 11.2 µM): 3.67 µM
- inhibition mode, monophenolase [2]: nearly competitive
- KI′ Uncompetitive ([2]; mixed-type treatment, average): 140.53 ± 94.57 µM
- KI′ Uncompetitive ([2]; mixed-type treatment, inhibitor 1.4 µM): 268.10 µM
- KI′ Uncompetitive ([2]; mixed-type treatment, inhibitor 2.8 µM): 151.20 µM
- KI′ Uncompetitive ([2]; mixed-type treatment, inhibitor 5.6 µM): 92.40 µM
- KI′ Uncompetitive ([2]; mixed-type treatment, inhibitor 11.2 µM): 50.40 µM
- Vmax^app ([3]; inhibitor 0.175 µM): 11.48 ± 0.22 µM/min
- Vmax^app ([3]; inhibitor 0.70 µM): 11.30 ± 0.88 µM/min
- Vmax^app ([3]; inhibitor 1.4 µM): 11.10 ± 0.21 µM/min
- Vmax^app ([3]; inhibitor 5.6 µM): 10.84 ± 0.26 µM/min
- IC50 ([3]; pH 6.8, L-dopa 0.05 mM): 3.04 ± 0.84 µM
- IC50 ([3]; pH 6.8, L-dopa 0.125 mM): 3.83 ± 0.94 µM
- IC50 ([3]; pH 6.8, L-dopa 0.25 mM): 5.6 ± 1.07 µM
- IC50 ([3]; pH 6.8, L-dopa 0.50 mM): 7.57 ± 1.11 µM
- IC50 ([3]; pH 6.8, L-dopa 1.00 mM): 12.4 ± 2 µM
- Ki [3, 7]: 2.5 ± 1.56 µM
- Ki [3, 8]: 1.28 µM
- Ki ([3]; diphenolase, inhibitor 0.70 µM): 1.54 µM
- Ki ([3]; diphenolase, inhibitor 1.4 µM): 2.46 µM
- Ki ([3]; diphenolase, inhibitor 5.6 µM): 4.72 µM
- lowest concentration with clear inhibition detectable ([3]; diphenolase): 175 nM
- KI′ Uncompetitive [3, 7]: 38.24 ± 27.81 µM
- KI′ Uncompetitive [3, 8]: 16.75 µM
- KI′ Uncompetitive ([3]; diphenolase, inhibitor 0.70 µM): 26.38 µM
- KI′ Uncompetitive ([3]; diphenolase, inhibitor 1.4 µM): 30.83 µM
- KI′ Uncompetitive ([3]; diphenolase, inhibitor 5.6 µM): 79.01 µM
- inhibition mode, diphenolase [3]: nearly competitive
- behaviour as substrate of mTYR (mTYR): not a significant substrate
